Experiment [1] in a line: Antiplatelet activity in human platelet-rich plasma assessed as inhibition of collagen-induced platelet aggregation at 10 uM treated for 5 mins prior to collagen challenge for 5 mins by turbidimetric method. In kind it is functional.
The next experiment has as its system Mus musculus. Description: Antithrombotic activity in mouse assessed as protection against collagen-epinephrine-induced pulmonary thromboembolism at 30 uM/kg, po administered 60 mins prior to thrombotic challenge. In kind it is functional.

The results in this text go back to ChEMBL document CHEMBL3259687, “Synthesis and identification of chiral aminomethylpiperidine carboxamides as inhibitor of collagen induced platelet activation” (Eur J Med Chem, 2014).

As a reminder, the inhibition is the drop in the measured response relative to a control, in per cent. Consider `Cc1ccc(CN2C(=O)CSCC2C(=O)N2CCC[C@@H](CNC(=O)OC(C)(C)C)C2)cc1` (single isomer, unassigned), for which, in experiment [1], the inhibition at 10 µM came out at 15%. The Activity in the experiment with Mus musculus stood at 30%.
Turning to `CC(C)(C)OC(=O)NC[C@H]1CCCN(C(=O)[C@@H]2CCC(=O)N2Cc2ccc(Cl)cc2)C1`, the inhibition at 10 µM in experiment [1] was 21%. Moreover, the Activity in the experiment with Mus musculus is listed as 15%.
Taken in the same sequence, the figures for `CC(C)(C)OC(=O)NC[C@@H]1CCCN(C(=O)[C@@H]2CCC(=O)N2Cc2cccc(C#N)c2)C1` were 6% and 30%.
For `CC(C)(C)OC(=O)NC[C@@H]1CCCN(C(=O)[C@@H]2CCC(=O)N2Cc2ccc(Br)cc2)C1`, in experiment [1], the inhibition at 10 µM worked out at 20%. Moreover, the Activity in the experiment on Mus musculus was 40%.
Taken in the same sequence, the figures for `CC(C)(C)OC(=O)NC[C@@H]1CCCN(C(=O)[C@@H]2CCC(=O)N2Cc2ccccc2Br)C1` were 27% and 50%.
As for `CC(C)(C)OC(=O)NC[C@H]1CCCN(C(=O)[C@@H]2CCC(=O)N2Cc2ccc(Cl)c(Cl)c2)C1`, the inhibition at 10 µM in experiment [1] was 24%. Also, the Activity with Mus musculus amounted to 30%.
The matching figures for `CC(C)(C)OC(=O)NC[C@H]1CCCN(C(=O)[C@@H]2CCC(=O)N2Cc2c(Cl)cccc2Cl)C1`: 22% and 10%.
As to `CC1OCC(=O)N(Cc2ccccc2)[C@@H]1C(=O)N1CCC[C@@H](CNC(=O)OC(C)(C)C)C1` (stereo partly drawn), the Activity in the experiment on Mus musculus was 20%.
As for `CC(C)(C)OC(=O)NC[C@@H]1CCCN(C(=O)[C@@H]2CCC(=O)N2Cc2ccccc2)C1`, the inhibition at 10 µM in experiment [1] is 26%. In addition, the Activity in the experiment with Mus musculus is reported as 20%.
Taken in the same sequence, the figures for `CC(C)(C)OC(=O)NC[C@H]1CCCN(C(=O)[C@@H]2CCC(=O)N2Cc2ccc(C#N)cc2)C1` were 25% and 10%.
For `CC(C)(C)OC(=O)NC[C@@H]1CCCN(C(=O)[C@@H]2CCC(=O)N2Cc2ccc3ccccc3c2)C1`, in experiment [1], the inhibition at 10 µM amounted to 29%. In addition, in the experiment on Mus musculus, the Activity stood at 30%.
The matching figures for `CC(C)(C)OC(=O)NC[C@H]1CCCN(C(=O)[C@@H]2CCC(=O)N2Cc2ccc3ccccc3c2)C1`: 22% and 22.3%.
On to `Cc1ccc(CN2C(=O)CC[C@H]2C(=O)N2CCC[C@@H](CNC(=O)[C@@H](NC(=O)OCc3ccccc3)C(C)C)C2)cc1`, for which, in the experiment with Mus musculus, the Activity is 10%.
Take `CC(C)(C)OC(=O)NC[C@@H]1CCCN(C(=O)[C@@H]2CCC(=O)N2Cc2c(Cl)cccc2Cl)C1`: in experiment [1], the inhibition at 10 µM came out at 24%. Further, the Activity with Mus musculus is recorded as 20%.
With `Cc1ccc(CN2C(=O)CC[C@H]2C(=O)N2CCC[C@@H](CNS(=O)(=O)c3ccc(C)cc3)C2)cc1`, the Activity in the experiment with Mus musculus worked out at 40%.
Turning to `CC(C)(C)OC(=O)NC[C@@H]1CCCN(C(=O)[C@@H]2CCC(=O)N2Cc2ccc(C#N)cc2)C1`, in experiment [1], the inhibition at 10 µM was 8%. In the experiment on Mus musculus, the Activity was found to be 60%.
Taken in the same sequence, the figures for `Cc1cccc(CN2C(=O)CC[C@H]2C(=O)N2CCC[C@@H](CNC(=O)OC(C)(C)C)C2)c1` were 28% and 30%.
Take `Cc1ccc(CN2C(=O)CC[C@H]2C(=O)N2CCC[C@@H](CNC(=O)c3ccc(C)cc3)C2)cc1`: in the experiment with Mus musculus, the Activity is on record as 30%.
The same measure, in the same setting: as for `Cc1ccc(CN2C(=O)COC(C)[C@H]2C(=O)N2CCC[C@H](CNC(=O)OC(C)(C)C)C2)cc1` (stereo partly drawn), the figure is 30%; as for `Cc1ccc(CN2C(=O)COC(C)[C@H]2C(=O)N2CCC[C@@H](CNC(=O)OC(C)(C)C)C2)cc1` (stereo partly drawn), 20%; as for `Cc1ccc(CN2C(=O)CC[C@H]2C(=O)N2CCC[C@@H](CNC(=O)[C@H](Cc3ccccc3)NC(=O)OCc3ccccc3)C2)cc1`, 30%.
Take `Cc1ccc(CN2C(=O)CC[C@H]2C(=O)N2CCC[C@@H](CNC(=O)[C@H](CC(C)C)NC(=O)OCc3ccccc3)C2)cc1`: in the experiment on Mus musculus, the Activity is listed as 30%.
As to `COc1cccc(CN2C(=O)CC[C@H]2C(=O)N2CCC[C@@H](CNC(=O)OC(C)(C)C)C2)c1`, the inhibition at 10 µM in experiment [1] worked out at 34%.
`CC1OCC(=O)N(Cc2ccccc2)[C@@H]1C(=O)N1CCC[C@H](CNC(=O)OC(C)(C)C)C1` (stereo partly drawn): the Activity in the experiment with Mus musculus stood at 20%.
